Reference: PubChem BioAssay (NCI)
“And” between values parts separate entries of the source, which are not always exact repeats. Equal values may be shown once.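 Exposure lasted 48 hours, with cells grown in 96-well plates and compounds tested at five concentrations. Here, GI50 denotes the concentration required for 50% inhibition of growth. Definition used: TGI = concentration required for complete inhibition of growth.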

Columns and labels:
Experiment in all cases: NCI anticancer screen, dose series, 48 h
ACHN renal = test system: ACHN renal
SK-MEL-2 melanoma = test system: SK-MEL-2 melanoma
TK-10 renal = test system: TK-10 renal
PC-3 prostate = test system: PC-3 prostate
SR leukemia = test system: SR leukemia
SF-295 CNS = test system: SF-295 CNS
SN12C renal = test system: SN12C renal
XF 498 CNS = test system: XF 498 CNS
DLD-1 colon = test system: DLD-1 colon
M19-MEL melanoma = test system: M19-MEL melanoma
DMS 273 small cell lung = test system: DMS 273 small cell lung
HOP-18 NSCLC = test system: HOP-18 NSCLC
DMS 114 small cell lung = test system: DMS 114 small cell lung

Row | SMILES | GI50 (ACHN renal) [nM] | TGI (ACHN renal) [µM] | GI50 (SK-MEL-2 melanoma) [nM] | TGI (SK-MEL-2 melanoma) | GI50 (TK-10 renal) [nM] | TGI (TK-10 renal) [µM] | GI50 (PC-3 prostate) [nM] | TGI (PC-3 prostate) [µM] | GI50 (SR leukemia) [nM] | TGI (SR leukemia) [nM] | GI50 (SF-295 CNS) [nM] | TGI (SF-295 CNS) | GI50 (SN12C renal) [nM] | TGI (SN12C renal) | TGI (XF 498 CNS) [nM] | TGI (DLD-1 colon) [µM] | TGI (M19-MEL melanoma) [µM] | TGI (DMS 273 small cell lung) [nM] | TGI (HOP-18 NSCLC) [µM] | TGI (DMS 114 small cell lung) [nM]
1 | Oc1ccc2ccccc2c1N=Nc1ccccn1 | 423 | > 100 | 3080 | > 82.5 µM | 1530 | > 86.2 | 1760 | > 100 | 356 | 10400 | 800 | 13500 nM | 1460 | > 100 µM | – | – | – | – | – | –
2 | Clc1ccc2c(NCCNc3ccnc4cc(Cl)ccc34)ccnc2c1 | – | 32.7 | – | 34.4 µM | – | 34.6 | – | 34.5 | – | – | – | 26200 nM | – | 33.4 µM | – | – | – | – | – | –
3 | CCOC(=O)c1c(C)[nH]c(/C=C2\N=C(c3ccc[nH]3)C=C2OC)c1C | 32.1 | 1.29 | – | – | 30.7 | 1.75 | 44.2 | 2.45 | – | – | 105 | 624 nM | – | – | – | – | – | – | – | –
4 | COc1cc2cc(C(=O)N3CC(CCl)c4c3cc(N(C)C)c3ccccc43)[nH]c2c(OC)c1OC (stereo unspecified) | – | > 100 | – | < 0.01 µM | – | > 100 | – | 0.18 | – | < 10 | – | 38.1 nM | – | 0.235 µM | – | – | – | – | – | –
5 | COc1ccc(Cl)cc1NC(=O)c1c(NC(=O)C(F)(F)C(F)(F)F)sc2c1CCCCC2 | 1760 | 7.11 | 1070 | 5.71 µM | – | – | 1470 | 11.3 | 1230 | > 100000 | 1030 | 3730 nM | – | – | – | – | – | – | – | –
6 | COc1cccc2c1C(=O)c1c(O)c3c(c(O)c1C2=O)C[C@@](O)(/C(C)=N/NC(=O)c1ccccc1)C[C@@H]3OC1CC(N)C(O)C(C)O1 (stereo partly specified) | – | 0.975 | – | 1.41 µM | – | 5.85 | – | 1.75 | – | 845 | – | 1840 nM | – | 5.7 µM | 242 | 17.6 | 2.99 | 1650 | 6.61 | 1110
7 | COC(=O)c1cc2c3c(cc(O)c2[nH]1)N(C(=O)C1Cc2cc(OC)c(OC)c(OC)c2N1)CC3CCl (stereo unspecified) | – | – | < 10 | < 0.01 µM | < 10 | < 0.01 | < 10 | < 0.01 | < 10 | > 100000 | < 10 | < 10 nM | < 10 | 0.0154 µM | – | – | – | – | – | –
8 | NC(Cc1c[nH]c2ccccc12)C(=O)O (stereo unspecified) | – | – | – | > 300 µM | – | – | – | – | – | – | – | > 300000 nM | – | > 13.9 µM | – | > 300 | > 300 | > 300000 | 196 | > 300000
9 | Nc1nc(N)c2nc(-c3ccco3)cnc2n1 | – | > 100 | – | – | – | > 100 | – | – | – | > 100000 | – | > 100000 nM | – | > 100 µM | > 100000 | > 100 | > 100 | – | > 100 | > 100000
10 | O=C1C=C(N2CC2)C(=O)C=C1N1CC1 | – | 0.303 | 28.2 | 0.0605 µM and 0.36 µM | 208 | 0.772 | – | – | 26.6 | 302 | 38 | 266 nM and 1300 nM | 30.7 | 0.278 µM and 1.14 µM | 538 | 1.5 | – | 520 | – | 644
11 | CC[C@@]1(O)C(=O)OCc2c1cc1n(c2=O)Cc2c-1nc1ccccc1c2/C=N\NC(=O)C(N)Cc1cnc[nH]1 (stereo partly specified) | – | 1.18 | – | > 46.5 µM | – | > 100 | – | > 100 | – | 387 | – | – | – | > 73 µM | – | – | – | – | – | –
12 | COc1ccc(CCCC(=O)O)c(C)c1 | – | > 100 | – | > 100 µM | – | > 100 | – | > 100 | – | > 100000 | – | > 100000 nM | – | > 100 µM | – | – | – | – | – | –
